Reference: patent publication US20230023559A1, “ARYLMETHYLENE HETEROCYCLIC COMPOUNDS AS KV1.3 POTASSIUM SHAKER CHANNEL BLOCKERS” (D. E. Shaw Research, LLC, priority 2019, published 2023)

Assays:
Kv1.3 potassium channel = target: T1, Kv1.3 potassium channel (Homo sapiens, UniProt P22001); experiment: Kv1.3 potassium channel blocker activity, automated whole-cell patch clamp (Patchliner); type: cell-based; conditions: CHO-K1 cells stably expressing Kv1.3; whole cell current inhibition; read-out: Kv1.3_IC50
T1 construct: expressed in transfected cells
Summary of the method: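 CHO-K1 cells stably expressing Kv1.3, automated whole-cell patch clamp. Currents evoked by 100 ms steps from −90 mV holding to +40 mV at 0.1 Hz, sampled at 10 kHz unfiltered, P/4 leak subtraction; peak current inhibition measured, compound incubation ≤10 s between pulse trains.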

hERG channel = hERG channel (Homo sapiens, UniProt Q12809); experiment: hERG electrophysiology, automated whole-cell patch clamp (Patchliner)
hERG channel, sequence (Q12809 whole entry): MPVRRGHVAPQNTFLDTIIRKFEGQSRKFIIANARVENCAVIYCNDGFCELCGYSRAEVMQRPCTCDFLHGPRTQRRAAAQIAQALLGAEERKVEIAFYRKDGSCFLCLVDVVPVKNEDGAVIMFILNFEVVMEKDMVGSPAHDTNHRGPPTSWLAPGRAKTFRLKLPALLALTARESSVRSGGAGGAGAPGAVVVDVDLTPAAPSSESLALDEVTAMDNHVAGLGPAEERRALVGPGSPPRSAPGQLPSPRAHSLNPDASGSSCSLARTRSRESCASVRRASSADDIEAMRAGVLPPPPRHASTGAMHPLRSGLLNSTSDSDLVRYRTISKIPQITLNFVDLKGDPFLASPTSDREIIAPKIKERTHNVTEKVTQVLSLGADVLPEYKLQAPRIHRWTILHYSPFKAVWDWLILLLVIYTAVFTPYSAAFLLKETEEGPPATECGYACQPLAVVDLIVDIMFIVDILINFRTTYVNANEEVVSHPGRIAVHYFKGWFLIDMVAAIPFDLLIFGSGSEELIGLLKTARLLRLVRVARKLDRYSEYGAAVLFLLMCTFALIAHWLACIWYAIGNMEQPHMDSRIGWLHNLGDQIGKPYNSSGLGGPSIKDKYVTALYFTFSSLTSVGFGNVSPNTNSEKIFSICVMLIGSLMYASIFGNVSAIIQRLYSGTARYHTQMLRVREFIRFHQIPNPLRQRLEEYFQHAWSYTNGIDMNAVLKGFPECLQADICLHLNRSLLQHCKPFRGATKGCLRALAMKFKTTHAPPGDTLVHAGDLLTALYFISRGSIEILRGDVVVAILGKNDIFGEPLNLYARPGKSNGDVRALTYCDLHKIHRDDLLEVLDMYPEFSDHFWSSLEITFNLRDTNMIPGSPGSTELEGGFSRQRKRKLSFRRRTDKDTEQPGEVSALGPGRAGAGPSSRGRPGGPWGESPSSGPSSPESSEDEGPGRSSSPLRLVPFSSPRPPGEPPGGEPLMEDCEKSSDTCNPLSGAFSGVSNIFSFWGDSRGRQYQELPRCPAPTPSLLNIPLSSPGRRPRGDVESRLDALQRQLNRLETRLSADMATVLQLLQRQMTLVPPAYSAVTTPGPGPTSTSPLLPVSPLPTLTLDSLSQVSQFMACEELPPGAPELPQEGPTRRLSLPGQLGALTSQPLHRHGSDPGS

T1 sequence (P22001 whole entry): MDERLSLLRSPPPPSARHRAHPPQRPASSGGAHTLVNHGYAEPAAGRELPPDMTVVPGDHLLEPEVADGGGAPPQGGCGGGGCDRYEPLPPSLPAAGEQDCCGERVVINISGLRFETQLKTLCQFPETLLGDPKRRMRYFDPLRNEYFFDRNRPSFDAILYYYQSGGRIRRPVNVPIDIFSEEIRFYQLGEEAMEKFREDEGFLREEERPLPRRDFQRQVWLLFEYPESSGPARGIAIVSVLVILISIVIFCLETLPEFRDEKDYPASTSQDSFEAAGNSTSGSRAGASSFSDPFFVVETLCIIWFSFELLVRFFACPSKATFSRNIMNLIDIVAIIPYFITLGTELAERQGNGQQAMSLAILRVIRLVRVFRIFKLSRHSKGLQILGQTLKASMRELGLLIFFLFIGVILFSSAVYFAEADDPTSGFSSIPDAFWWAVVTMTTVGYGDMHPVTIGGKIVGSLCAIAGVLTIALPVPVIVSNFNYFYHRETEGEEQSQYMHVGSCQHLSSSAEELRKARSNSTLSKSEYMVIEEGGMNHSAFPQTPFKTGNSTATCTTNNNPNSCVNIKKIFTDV

SMILES | IC50 (Kv1.3 potassium channel) [µM] | IC50 (hERG channel) [µM]
N[C@@H](c1cc(Cl)c(Cl)cc1O)C1CCN(C(=O)c2cc(=O)[nH]cn2)CC1 [Compound 176, (R)-(4-(amino (4,5-dichloro-2-hydroxyphenyl)methyl)piperidin-1-yl)(6-hydroxy-pyrimidin-4-yl)methanone trifluoroacetic acid] | < 10 | > 30
N[C@@H](c1cc(Cl)c(Cl)cc1O)C1CCN(C(=O)c2cccc(=O)[nH]2)CC1 [Compound 178, (R)-6-(4-(amino(4,5-dichloro-2-hydroxyphenyl)methyl)piperidine-1-carbonyl) pyridin-2(1H)-one formic acid] | < 0.5 | > 30
N[C@@H](c1cc(Cl)c(Cl)cc1O)C1CCN(c2cc[nH]c(=O)c2)CC1 [Compound 180, 4-[4-[(R)-amino(4,5-dichloro-2-hydroxyphenyl)methyl]piperidin-1-yl]-1,2-dihydropyridin-2-one Trifluoroacetic Acid] | < 0.5 | > 30
COC[C@H](O)C(=O)N1CCC([C@@H](N)c2cc(Cl)c(Cl)cc2O)CC1 [Compound 181, (2S)-1-[4-[(R)-amino(4,5-dichloro-2-hydroxyphenyl)methyl]piperidin-1-yl]-2-hydroxy-3-methoxypropan-1-one trifluoroacetic acid] | < 0.5 | > 30
Nc1nc(N2CCC([C@@H](N)c3cc(Cl)c(Cl)cc3O)CC2)no1 [Compound 183, 2-[(R)-amino[1-(5-amino-1,2,4-oxadiazol-3-yl)piperidin-4-yl]methyl]-4,5-dichlorophenol] | < 0.5 | < 30
CO[C@@H](CO)C(=O)N1CCC([C@@H](N)c2cc(Cl)c(Cl)cc2O)CC1 [Compound 185, (2S)-1-[4-[(R)-amino(4,5-dichloro-2-hydroxyphenyl)methyl]piperidin-1-yl]-3-hydroxy-2-methoxypropan-1-one trifluoroacetic acid] | < 10 | > 30
N[C@@H](c1cc(Cl)c(Cl)cc1O)C1CCN(C(=O)c2c[nH]c(=O)cn2)CC1 [Compound 186, (R)-5-(4-(amino(4,5-dichloro-2-hydroxyphenyl)methyl)piperidine-1-carbonyl) pyrazin-2(1H)-one] | < 0.5 | > 30
N[C@@H](c1c(O)cc(Cl)c(Cl)c1Cl)C1CCN(C(=O)[C@H](O)CO)CC1 [Compound 188, (R)-1-(4-((R)-amino(2,3,4-trichloro-6-hydroxyphenyl)methyl)piperidin-1-yl)-2,3-dihydroxypropan-1-one Trifluoroacetic Acid] | < 10 | > 30
N[C@@H](c1cc2ccccc2cc1O)C1CCN(C(=O)[C@H](O)CO)CC1 [Compound 189, (2R)-1-[4-[(R)-amino(3-hydroxynaphthalen-2-yl)methyl]piperidin-1-yl]-2,3-dihydroxypropan-1-one Trifluoroacetic Acid] | < 0.5 | > 30
Cc1cc(O)c([C@H](N)C2CCN(C(=O)[C@H](O)CO)CC2)cc1Cl [Compound 190, (2R)-1-[4-[(R)-amino(5-chloro-2-hydroxy-4-methylphenyl)methyl]piperidin-1-yl]-2,3-dihydroxypropan-1-one Trifluoroacetic Acid] | < 0.5 | > 30
N[C@@H](c1c(O)ccc2ccccc12)C1CCN(C(=O)[C@H](O)CO)CC1 [Compound 191, (2R)-1-[4-[(R)-amino(2-hydroxynaphthalen-1-yl)methyl]piperidin-1-yl]-2,3-dihydroxypropan-1-one Trifluoroacetic Acid] | < 10 | > 30
N[C@@H](c1cc(Cl)c(Cl)cc1O)C1CCN(C(=O)COC2COC2)CC1 [Compound 192, 1-[4-[(R)-amino(4,5-dichloro-2-hydroxyphenyl)methyl]piperidin-1-yl]-2-(oxetan-3-yloxy)ethan-1-one] | < 0.5 | > 30
